Test results published in patent US7491794B2, “Macrocyclic compounds as inhibitors of viral replication” (Intermune, Inc., priority 2003, dated 2009).

Experiments:
[1] = tested on: HCV sub-genomic replicon, GS4.3; test: Quantitation by ELISA of NPTII in the HCV sub-genomic replicon, GS4.3, Section B; format: cell-based; details: Hepatitis C virus; GS4.3 cells, 72 h incubation; read-out: Replicon EC50
Method in brief: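 GS4.3 cells (HuH-7 carrying HCV 1377/NS3-3′ replicon) were treated 72 h at 37 °C with inhibitors in 3-fold dilutions, 1% DMSO, no G418. Lysate NPTII was measured by ELISA (TMB, 450 nm). Signal as % of DMSO control; EC50 from 4-parameter fit.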

NS3-NS4A protease = target: T1, NS3-NS4A protease (Hepatitis C virus genotype 1a, UniProt P27958); test: NS3-NS4A protease assay (NS3 inhibition assay, RETS1 substrate), Section B; format: biochemical; details: read-out: NS3-NS4A IC50
T1 construct: Recombinant E. coli or Baculovirus full-length NS3 was diluted to 3.33 μM with assay buffer; made in house; host or cells: E. coli or baculovirus (BV) system
Method in brief: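 Full-length NS3 (E. coli or baculovirus) precomplexed with excess NS4A-2 peptide, run at 2 nM (E. coli) or 3 nM (BV) NS3; compounds pre-incubated 10 min at room temperature before RETS1 substrate. Fluorescence (ex 335/em 495 nm) read kinetically 30 min; IC50 from four-parameter fit, converted to Ki via Ki=IC50/(1+[S]/Km).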

T1 sequence (P27958 1027-1657): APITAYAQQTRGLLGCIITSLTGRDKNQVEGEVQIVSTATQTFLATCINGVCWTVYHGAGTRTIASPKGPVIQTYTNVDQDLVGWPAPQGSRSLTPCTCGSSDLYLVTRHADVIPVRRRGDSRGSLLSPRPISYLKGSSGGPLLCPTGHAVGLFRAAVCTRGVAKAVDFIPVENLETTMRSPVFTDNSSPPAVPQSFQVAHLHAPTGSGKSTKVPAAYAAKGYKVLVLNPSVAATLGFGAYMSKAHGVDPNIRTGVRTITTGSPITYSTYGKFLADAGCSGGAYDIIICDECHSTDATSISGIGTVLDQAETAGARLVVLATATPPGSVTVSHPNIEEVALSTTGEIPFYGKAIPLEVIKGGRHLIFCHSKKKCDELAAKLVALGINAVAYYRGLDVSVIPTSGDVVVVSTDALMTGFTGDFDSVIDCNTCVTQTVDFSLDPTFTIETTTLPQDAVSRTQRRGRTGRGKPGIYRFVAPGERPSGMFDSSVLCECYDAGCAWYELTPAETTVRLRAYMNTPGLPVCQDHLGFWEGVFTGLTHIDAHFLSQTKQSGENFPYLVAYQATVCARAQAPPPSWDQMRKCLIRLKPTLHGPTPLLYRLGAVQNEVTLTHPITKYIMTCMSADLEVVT

SMILES | EC50 [1] [µM] | IC50 (NS3-NS4A protease) [µM]
O=C(N[C@H]1CCCCC/C=C\[C@@H]2C[C@@]2(C(=O)O)NC(=O)[C@@H]2C[C@@H](OC(=O)N3Cc4ccccc4C3)CN2C1=O)O[C@H]1CCOC1 [AR00320075, (1S,4R,6S,14S,18R)-18-(1,3-Dihydro-isoindole-2-carbonyloxy)-2,15-dioxo-14-(tetrahydro-furan-3S-yloxycarbonylamino)-3,16-diaza-tricyclo[14.3.0.0^4,6]nonadec-7-ene-4-carboxylic acid] | < 10 | < 1
O=C(N[C@H]1CCCCC/C=C\[C@@H]2C[C@@]2(C(=O)O)NC(=O)[C@@H]2C[C@@H](OC(=O)N3Cc4ccccc4C3)CN2C1=O)OCCF [AR00320076, (1S,4R,6S,14S,18R)-18-(1,3-Dihydro-isoindole-2-carbonyloxy)-2,15-dioxo-14-(2-fluoro-ethoxycarbonylamino)-3,16-diaza-tricyclo[14.3.0.0^4,6]nonadec-7-ene-4-carboxylic acid] | < 10 | < 1
O=C(N[C@H]1CCCCC/C=C\[C@@H]2C[C@@]2(C(=O)O)NC(=O)[C@@H]2C[C@@H](OC(=O)N3Cc4ccccc4C3)CN2C1=O)OC1CCOCC1 [AR00320077, (1S,4R,6S,14S,18R)-18-(1,3-Dihydro-isoindole-2-carbonyloxy)-2,15-dioxo-14-(tetrahydro-pyran-4-yloxycarbonylamino)-3,16-diaza-tricyclo[14.3.0.0^4,6]nonadec-7-ene-4-carboxylic acid] | < 10 | < 1
CC(C)(C)NC(=O)N[C@H]1CCCCC/C=C\[C@@H]2C[C@@]2(C(=O)O)NC(=O)[C@@H]2C[C@@H](OC(=O)N3Cc4ccccc4C3)CN2C1=O [AR00320078, (1S,4R,6S,14S,18R)-14-(3-tert-Butyl-ureido)-18-(1,3-dihydro-isoindole-2-carbonyloxy)-2,15-dioxo-3,16-diaza-tricyclo[14.3.0.0^4,6]nonadec-7-ene-4-carboxylic acid] | < 10 | < 0.1
O=C(N[C@H]1CCCCC/C=C\[C@@H]2C[C@@]2(C(=O)NS(=O)(=O)C2CC2)NC(=O)[C@@H]2C[C@@H](OC(=O)N3Cc4ccccc4C3)CN2C1=O)O[C@@H]1CCOC1 [AR00320079, (1S,4R,6S,14S,18R)-1,3-Dihydro-isoindole-2-carboxylic acid 4-cyclopropanesulfonylaminocarbonyl-2,15-dioxo-14-(tetrahydro-furan-3-yloxycarbonylamino)-3,16-diaza-tricyclo[14.3.0.0^4,6]nonadec-7-en-18-yl ester] | < 0.1 | < 0.1
O=C(N[C@H]1CCCCC/C=C\[C@@H]2C[C@@]2(C(=O)NS(=O)(=O)C2CC2)NC(=O)[C@@H]2C[C@@H](OC(=O)N3Cc4ccccc4C3)CN2C1=O)O[C@H]1CCOC1 [AR00320080, (1S,4R,6S,14S,18R)-1,3-Dihydro-isoindole-2-carboxylic acid 4-cyclopropanesulfonylaminocarbonyl-2,15-dioxo-14-(tetrahydro-furan-3S-yloxycarbonylamino)-3,16-diaza-tricyclo[14.3.0.0^4,6]nonadec-7-en-18-yl ester] | < 1 | < 0.1
O=C(N[C@H]1CCCCC/C=C\[C@@H]2C[C@@]2(C(=O)NS(=O)(=O)C2CC2)NC(=O)[C@@H]2C[C@@H](OC(=O)N3Cc4ccccc4C3)CN2C1=O)OC1CCOCC1 [AR00320081, (1S,4R,6S,14S,18R)-1,3-Dihydro-isoindole-2-carboxylic acid 4-cyclopropanesulfonylaminocarbonyl-2,15-dioxo-14-(tetrahydro-pyran-4-yloxycarbonylamino)-3,16-diaza-tricyclo[14.3.0.0^4,6]nonadec-7-en-18-yl ester] | < 0.1 | < 0.1
O=C(N[C@H]1CCCCC/C=C\[C@@H]2C[C@@]2(C(=O)NS(=O)(=O)C2CC2)NC(=O)[C@@H]2C[C@@H](OC(=O)N3CCc4ccccc4C3)CN2C1=O)OC1CCOCC1 [AR00320082, (1S,4R,6S,14S,18R)-3,4-Dihydro-1H-isoquinoline-2-carboxylic acid 4-cyclopropanesulfonylaminocarbonyl-2,15-dioxo-14-(tetrahydro-pyran-4-yloxycarbonylamino)-3,16-diaza-tricyclo[14.3.0.0^4,6]nonadec-7-en-18-yl ester] | < 0.1 | < 0.1
CC(C)(C)OC(=O)N[C@H]1CCCCC/C=C\[C@@H]2C[C@@]2(C(=O)NS(=O)(=O)C2CC2)NC(=O)[C@@H]2C[C@@H](OC(=O)N3Cc4ccc(Cl)cc4C3)CN2C1=O [AR00320119, (1S,4R,6S,14S,18R)-5-Chloro-1,3-dihydro-isoindole-2-carboxylic acid 14-tert-butoxycarbonylamino-4-cyclopropanesulfonylaminocarbonyl-2,15-dioxo-3,16-diaza-tricyclo[14.3.0.0^4,6]nonadec-7-en-18-yl ester] | < 0.1 | < 0.1
CN(C)c1cccc2c1CCN(C(=O)O[C@@H]1C[C@H]3C(=O)N[C@]4(C(=O)NS(=O)(=O)C5CC5)C[C@H]4/C=C\CCCCC[C@H](NC(=O)OC(C)(C)C)C(=O)N3C1)C2 [AR00320120, (1S,4R,6S,14S,18R)-5-Dimethylamino-3,4-dihydro-1H-isoquinoline-2-carboxylic acid 14-tert-butoxycarbonylamino-4-cyclopropanesulfonylaminocarbonyl-2,15-dioxo-3,16-diaza-tricyclo[14.3.0.0^4,6]nonadec-7-en-18-yl ester] | < 0.1 | < 0.1
CC(C)(C)OC(=O)N[C@H]1CCCCC/C=C\[C@@H]2C[C@@]2(C(=O)NS(=O)(=O)C2CC2)NC(=O)[C@@H]2C[C@@H](OC(=O)N3Cc4cc(Cl)c(Cl)cc4C3)CN2C1=O [AR00320121, (1S,4R,6S,14S,18R)-5,6-Dichloro-1,3-dihydro-isoindole-2-carboxylic acid 14-tert-butoxycarbonylamino-4-cyclopropanesulfonylaminocarbonyl-2,15-dioxo-3,16-diaza-tricyclo[14.3.0.0^4,6]nonadec-7-en-18-yl ester] | < 0.1 | < 0.1
C[C@H]1CN(C(=O)O[C@@H]2C[C@H]3C(=O)N[C@]4(C(=O)O)C[C@H]4C=CCCCCC[C@H](NC(=O)OC(C)(C)C)C(=O)N3C2)Cc2ccccc21 [AR00320122, (1S,4R,6S,14S,18R)-14-tert-Butoxycarbonylamino-18-(4R-methyl-3,4-dihydro-1H-isoquinoline-2-carbonyloxy)-2,15-dioxo-3,16-diaza-tricyclo[14.3.0.0^4,6]nonadec-7-ene-4-carboxylic acid] | < 10 | < 1
C[C@@H]1CN(C(=O)O[C@@H]2C[C@H]3C(=O)N[C@]4(C(=O)O)C[C@H]4/C=C\CCCCC[C@H](NC(=O)OC(C)(C)C)C(=O)N3C2)Cc2ccccc21 [AR00320123, (1S,4R,6S,14S,18R)-14-tert-Butoxycarbonylamino-18-(4S-methyl-3,4-dihydro-1H-isoquinoline-2-carbonyloxy)-2,15-dioxo-3,16-diaza-tricyclo[14.3.0.0^4,6]nonadec-7-ene-4-carboxylic acid] | < 10 | < 1
CC(C)(C)NC(=O)N[C@H]1CCCCC/C=C\[C@@H]2C[C@@]2(C(=O)NS(=O)(=O)C2CC2)NC(=O)[C@@H]2C[C@@H](OC(=O)N3Cc4ccccc4C3)CN2C1=O [AR00320220, (1S,4R,6S,14S,18R)-1,3-Dihydro-isoindole-2-carboxylic acid 14-(3-tert-butyl-ureido)-4-cyclopropanesulfonylaminocarbonyl-2,15-dioxo-3,16-diaza-tricyclo[14.3.0.0^4,6]nonadec-7-en-18-yl ester] | < 0.1 | < 0.1
O=C(NC1CCOC1)N[C@H]1CCCCC/C=C\[C@@H]2C[C@@]2(C(=O)NS(=O)(=O)C2CC2)NC(=O)[C@@H]2C[C@@H](OC(=O)N3CCc4ccccc4C3)CN2C1=O (stereo partly drawn) [AR00320222, (1S,4R,6S,14S,18R)-3,4-Dihydro-1H-isoquinoline-2-carboxylic acid 4-cyclopropanesulfonylaminocarbonyl-2,15-dioxo-14-[3-(tetrahydro-furan-3-yl)-ureido]-3,16-diaza-tricyclo[14.3.0.0^4,6]nonadec-7-en-18-yl ester] | < 10 | < 0.1
O=C(NC1CCCC1)N[C@H]1CCCCC/C=C\[C@@H]2C[C@@]2(C(=O)NS(=O)(=O)C2CC2)NC(=O)[C@@H]2C[C@@H](OC(=O)N3CCc4ccccc4C3)CN2C1=O [AR00320403, (1S,4R,6S,14S,18R)-3,4-Dihydro-1H-isoquinoline-2-carboxylic acid 14-(3-cyclopentyl-ureido)-4-cyclopropanesulfonylaminocarbonyl-2,15-dioxo-3,16-diaza-tricyclo[14.3.0.0^4,6]nonadec-7-en-18-yl ester] | < 1 | < 0.1
CC(C)(C)NC(=O)N[C@H]1CCCCC/C=C\[C@@H]2C[C@@]2(C(=O)NS(=O)(=O)C2CC2)NC(=O)[C@@H]2C[C@@H](OC(=O)N3Cc4ccc(Cl)cc4C3)CN2C1=O [AR00320446, (1S,4R,6S,14S,18R)-5-Chloro-1,3-dihydro-isoindole-2-carboxylic acid 14-(3-tert-butyl-ureido)-4-cyclopropanesulfonylaminocarbonyl-2,15-dioxo-3,16-diaza-tricyclo[14.3.0.0^4,6]nonadec-7-en-18-yl ester] | < 0.1 | < 0.1
